Measured values published in patent US10828315B2 (Madrigal Pharmaceuticals, Inc., priority 2013, dated 2020).
pIC50: −log10 of the molar value.

Each molecule was assayed on HER2 (assay: HER2 degradation assay with BT-474 cell line (Example 12, FACS)).
Assay type: cell-based, human
Description: HER2 has emerged as a key target for anticancer drugs due to its intrinsic involvement in the phosphatidylinositol-3-kinase-Akt/protein kinase B (PI3K-Akt) and the mitogen-activated protein kinase (MAPK) pathways, both of which suppress apoptosis and promote tumor cell survival, gene transcription, angiogenesis, cellular proliferation, migration, mitosis, and differentiation. The degradation of HER2 is a measure of efficacy of anticancer therapeutics that target Hsp90. Accordingly, the SDC-TRAP molecules of the invention that comprise a binding moiety that binds Hsp90 were tested in the following HER2 degradation assay.
BT-474 cells (human breast cancer cell line ATCC HTB-20) were obtained from ATCC and seeded into 12-well tissue culture plates at 0.2×10^6/1.8 mL/well. […] Each test compound was titrated in 4-fold dilutions from 5 μM to 78 nM with DMSO and 200 μL of the titration was added to each well of the cell plate. The DMSO final concentration was 0.2%. Cells were incubated overnight at 37° C. in 5% CO2.
Media was decanted from the plate, cells were washed 1× in PBS. 400 μL trypsin (EDTA) per well was added, and the cells were incubated for 2 to 3 minutes. Cells were collected into FACS tubes containing 1 ml culture medium to neutralize the trypsin and were centrifuged for 5 minutes at 1200 rpm. Supernatant was decanted and the cells were resuspended in 5 μL FITC (anti HER2/nu)/200 μL staining buffer (1×PBS+1% FBS+0.05% Sodium Azide)/tube. Controls were 5 μL IgG isotype control and staining buffer only. Tubes were incubated for 30 minutes in the dark at room temperature. 1 mL staining buffer was added to each tube and the tubes were centrifuged for 6 minutes at 1200 rpm. The supernatant was decanted and 300 μL staining buffer was added to each tube, which was store at 4° C. fpr FACS (cytometer) analysis. The cytometer readout was normalized and the potency of each compound is evaluated with IC50 calculated with XLfit™ software.
CCc1c2c(nc3ccc(O)cc13)-c1cc3c(c(=O)n1C2)COC(=O)[C@@]3(CC)OC(=O)N1CCC(COc2ccc(-n3c(O)nnc3-c3cc(C(C)C)c(O)cc3O)cc2)CC1 [SDC-TRAP-0014, (S)-4,11-diethyl-9-hydroxy-3,14-dioxo-3,4,12,14-tetrahydro-1H-pyrano[3,4:6,7]indolizino[1,2-b]quinolin-4-yl 4-((4-(3-(2,4-dihydroxy-5-isopropylphenyl)-5-hydroxy-4H-1,2,4-triazol-4-yl)phenoxy)methyl)piperidine-1-carboxylate] was tested, and the pIC50 was < 5.30. CCc1c2c(nc3ccc(OC(=O)N4CCC(N5Cc6ccc(-n7c(O)nnc7-c7cc(C(C)C)c(O)cc7O)cc6C5)CC4)cc13)-c1cc3c(c(=O)n1C2)COC(=O)[C@]3(O)CC [SDC-TRAP-0089, (S)-4,11-diethyl-4-hydroxy-3,14-dioxo-3,4,12,14-tetrahydro-1H-pyrano[3′,4′:6,7]indolizino[1,2-b]quinolin-9-yl 4-(5-(3-(2,4-dihydroxy-5-isopropylphenyl)-5-hydroxy-4H-1,2,4-triazol-4-yl)isoindolin-2-yl)piperidine-1-carboxylate] was tested, and the pIC50 was 5.83. With CCc1c2c(nc3ccc(OC(=O)NCCOCCn4ccc5cc(-n6c(O)nnc6-c6cc(C(C)C)c(O)cc6O)ccc54)cc13)-c1cc3c(c(=O)n1C2)COC(=O)C3(O)CC (centres unmarked) [SDC-TRAP-0016, 4,11-diethyl-4-hydroxy-3,14-dioxo-3,4,12,14-tetrahydro-1H-pyrano[3′,4′:6,7]indolizino[1,2-b]quinolin-9-yl (2-(2-(5-(3-(2,4-dihydroxy-5-isopropylphenyl)-5-hydroxy-4H-1,2,4-triazol-4-yl)-1H-indol-1-yl)ethoxy)ethyl)carbamate] the pIC50 was < 5.30. For CCc1c2c(nc3ccc(O)cc13)-c1cc3c(c(=O)n1C2)COC(=O)C3(CC)OC(=O)CCC(=O)NCCn1ccc2cc(-n3c(O)nnc3-c3cc(C(C)C)c(O)cc3O)ccc21 (centres unmarked) [SDC-TRAP-0026], the pIC50 was 5.75. CCc1c2c(nc3ccc(O)cc13)-c1cc3c(c(=O)n1C2)COC(=O)[C@@]3(CC)OC(=O)N1CCN(c2ccc(-n3c(O)nnc3-c3cc(C(C)C)c(O)cc3O)cn2)CC1 [SDC-TRAP-0091, (S)-4,11-diethyl-9-hydroxy-3,14-dioxo-3,4,12,14-tetrahydro-1H-pyrano[3′,4′:6,7]indolizino[1,2-b]quinolin-4-yl 4-(5-(3-(2,4-dihydroxy-5-isopropylphenyl)-5-hydroxy-4H-1,2,4-triazol-4-yl)pyridin-2-yl)piperazine-1-carboxylate] was tested, and the pIC50 was < 5.30. CCc1c2c(nc3ccc(OC(=O)N4CCC(CCN5CCN(c6ccc(-n7c(O)nnc7-c7cc(C(C)C)c(O)cc7O)cc6)CC5)CC4)cc13)-c1cc3c(c(=O)n1C2)COC(=O)C3(O)CC (centres unmarked) [SDC-TRAP-0070, 4,11-diethyl-4-hydroxy-3,14-dioxo-3,4,12,14-tetrahydro-1H-pyrano[3′,4′:6,7]indolizino[1,2-b]quinolin-9-yl 4-(2-(4-(4-(3-(2,4-dihydroxy-5-isopropylphenyl)-5-hydroxy-4H-1,2,4-triazol-4-yl)phenyl)piperazin-1-yl)ethyl)piperidine-1-carboxylate] gave a pIC50 of 6.58. With CCc1c2c(nc3ccc(OC(=O)N(C)CCNC(=O)c4nnc(-c5cc(C(C)C)c(O)cc5O)n4-c4cccnc4)cc13)-c1cc3c(c(=O)n1C2)COC(=O)C3(O)CC (centres unmarked) [SDC-TRAP-0112, 4,11-Diethyl-4-hydroxy-3,14-dioxo-3,4,12,14-tetrahydro-1H-pyrano[3′,4′:6,7]indolizino[1,2-b]quinolin-9-yl (2-(5-(2,4-dihydroxy-5-isopropylphenyl)-4-(pyridin-3-yl)-4H-1,2,4-triazole-3-carboxamido)ethyl)(methyl)carbamate] the pIC50 was < 5.30. For CCc1c2c(nc3ccc(O)cc13)-c1cc3c(c(=O)n1C2)COC(=O)C3(CC)OC(=O)C1CCN(C(=O)Cc2ccc(-n3c(O)nnc3-c3cc(C(C)C)c(O)cc3O)cc2)CC1 (centres unmarked) [SDC-TRAP-0097, 4,11-diethyl-9-hydroxy-3,14-dioxo-3,4,12,14-tetrahydro-1H-pyrano[3′,4′:6,7]indolizino[1,2-b]quinolin-4-yl 1-(2-(4-(3-(2,4-dihydroxy-5-isopropylphenyl)-5-hydroxy-4H-1,2,4-triazol-4-yl)phenyl)acetyl)piperidine-4-carboxylate], the pIC50 was < 5.30. CCNC(=O)c1nnc(-c2cc(C(C)C)c(O)cc2O)n1-c1ccc(C(=O)N2CCN(c3ccc(OC(=O)Nc4cccc5c4CN(C4CCC(=O)NC4=O)C5=O)cc3)CC2)cc1 (centres unmarked) was tested, and the pIC50 was 6.60. Work on CCc1c2c(nc3ccc(O)cc13)-c1cc3c(c(=O)n1C2)COC(=O)C3(CC)OC(=O)N1CCN(Cc2cc3cc(-n4c(O)nnc4-c4cc(C(C)C)c(O)cc4O)ccc3n2C)CC1 (centres unmarked) [SDC-TRAP-0075, 4,11-diethyl-9-hydroxy-3,14-dioxo-3,4,12,14-tetrahydro-1H-pyrano[3′,4′:6,7]indolizino[1,2-b]quinolin-4-yl 4-((5-(3-(2,4-dihydroxy-5-isopropylphenyl)-5-hydroxy-4H-1,2,4-triazol-4-yl)-1-methyl-1H-indol-2-yl)methyl)piperazine-1-carboxylate] yielded a pIC50 of 6.02. Molecule CC(C)c1cc(-c2nnc(O)n2-c2ccc(CN3CCN(C(=O)Oc4ccc5c(c4)C[C@@H](CCCCCCCCC[S+]([O-])CCCC(F)(F)C(F)(F)F)[C@@H]4[C@@H]5CC[C@]5(C)[C@@H](O)CC[C@@H]45)CC3)cc2)c(O)cc1O (stereo partly drawn) [SDC-TRAP-0148, (7R,8R,9S,13S,14S,17S)-17-hydroxy-13-methyl-7-(9-((4,4,5,5,5-pentafluoropentyl)sulfinyl)nonyl)-7,8,9,11,12,13,14,15,16,17-decahydro-6H-cyclopenta[a]phenanthren-3-yl 4-(4-(3-(2,4-dihydroxy-5-isopropylphenyl)-5-hydroxy-4H-1,2,4-triazol-4-yl)benzyl)piperazine-1-carboxylate] has a pIC50 of 5.52. With CCc1c2c(nc3ccc(OC(C)=O)cc13)-c1cc3c(c(=O)n1C2)COC(=O)C3(CC)OC(=O)N1CCN(Cc2ccc(-n3c(O)nnc3-c3cc(C(C)C)c(O)cc3O)cc2)CC1 (centres unmarked) [SDC-TRAP-0074, 9-acetoxy-4,11-diethyl-3,14-dioxo-3,4,12,14-tetrahydro-1H-pyrano[3′,4′:6,7]indolizino[1,2-b]quinolin-4-yl 4-(4-(3-(2,4-dihydroxy-5-isopropylphenyl)-5-hydroxy-4H-1,2,4-triazol-4-yl)benzyl) piperazine-1-carboxylate] the pIC50 was 5.39. COc1ccc(/C=C\c2cc(OC)c(OC)c(OC)c2)cc1OC(=O)N1CCN(Cc2ccc(-n3c(O)nnc3-c3cc(C(C)C)c(O)cc3O)cc2)CC1 [SDC-TRAP-0085, (Z)-2-methoxy-5-(3,4,5-trimethoxystyryl)phenyl 4-(4-(3-(2,4-dihydroxy-5-isopropylphenyl)-5-hydroxy-4H-1,2,4-triazol-4-yl)benzyl) piperazine-1-carboxylate] was tested, and the pIC50 was 6.05. In the case of CCc1c2c(nc3ccc(OC(=O)N4CCN(c5ccc(-n6c(O)nnc6-c6cc(C(C)C)c(O)cc6O)cn5)CC4)cc13)-c1cc3c(c(=O)n1C2)COC(=O)[C@]3(O)CC [SDC-TRAP-0090, (S)-4,11-diethyl-4-hydroxy-3,14-dioxo-3,4,12,14-tetrahydro-1H-pyrano[3′,4′:6,7]indolizino[1,2-b]quinolin-9-yl 4-(5-(3-(2,4-dihydroxy-5-isopropylphenyl)-5-hydroxy-4H-1,2,4-triazol-4-yl)pyridin-2-yl)piperazine-1-carboxylate], the pIC50 was 5.34. CCNC(=O)c1nnc(-c2cc(C(C)C)c(O)cc2O)n1-c1ccc(CN2CCC(C(=O)N(C)CCC(=O)OC3(CC)C(=O)OCc4c3cc3n(c4=O)Cc4c-3nc3ccc(O)cc3c4CC)CC2)cc1 (centres unmarked) [SDC-TRAP-0100, 4,11-Diethyl-9-hydroxy-3,14-dioxo-3,4,12,14-tetrahydro-1H-pyrano[3′,4′:6,7]indolizino[1,2-b]quinolin-4-yl 3-(1-(4-(3-(2,4-dihydroxy-5-isopropylphenyl)-5-(ethylcarbamoyl)-4H-1,2,4-triazol-4-yl)benzyl)-N-methylpiperidine-4-carboxamido)propanoate] was tested, and the pIC50 was 7.10. In the case of CCc1c2c(nc3ccc(OC(=O)N4CCN(C(=O)c5cc6cc(-n7c(O)nnc7-c7cc(C(C)C)c(O)cc7O)ccc6n5C)CC4)cc13)-c1cc3c(c(=O)n1C2)COC(=O)C3(O)CC (centres unmarked) [SDC-TRAP-0072, 4,11-diethyl-4-hydroxy-3,14-dioxo-3,4,12,14-tetrahydro-1H-pyrano[3′,4′:6,7]indolizino[1,2-b]quinolin-9-yl 4-(5-(3-(2,4-dihydroxy-5-isopropylphenyl)-5-hydroxy-4H-1,2,4-triazol-4-yl)-1-methyl-1H-indole-2-carbonyl)piperazine-1-carboxylate], the pIC50 was < 5.30. With CCc1c2c(nc3ccc(OC(=O)N4CCC(CCc5ccc(-n6c(O)nnc6-c6cc(C(C)C)c(O)cc6O)cc5)CC4)cc13)-c1cc3c(c(=O)n1C2)COC(=O)[C@]3(O)CC [SDC-TRAP-0086, (S)-4,11-diethyl-4-hydroxy-3,14-dioxo-3,4,12,14-tetrahydro-1H-pyrano[3′,4′:6,7]indolizino[1,2-b]quinolin-9-yl 4-(4-(3-(2,4-dihydroxy-5-isopropylphenyl)-5-hydroxy-4H-1,2,4-triazol-4-yl)phenethyl)piperidine-1-carboxylate] the pIC50 was < 5.30.
